# Patent publication US9982017B2, “Synthetic apelin mimetics for the treatment of heart failure” (priority 2012, dated 2018)
# Where a SMILES comes first, the peptide text is derived from it. Bridges are numbered along the chain shown (N, C = ends). [ ]: non-standard residue; d: D form. The star is where a group is joined. ξ: configuration not given here. Bip = N[C@@H](Cc1ccc(-c2ccccc2)cc1)C(=O)O; Myristoyl = CCCCCCCCCCCCCC(=O)*; pGlu = O=C1CC[C@@H](C(=O)O)N1; NHPhenethyl = c1ccc(CCN*)cc1; Lauroyl = CCCCCCCCCCCC(=O)*; d(hCys) = N[C@H](CCS)C(=O)O; hCys = N[C@@H](CCS)C(=O)O; Nle = CCCC[C@H](N)C(=O)O; Orn = NCCC[C@H](N)C(=O)O; Api = NC1(C(=O)O)CCNCC1; AEEA = NCCOCCOCC(=O)O; ξPip = O=C(O)C1CCCCN1; Aib = CC(C)(N)C(=O)O; Inp = O=C(O)C1CCNCC1
# Assay: in vitro
# Details: rat, not told, Surrogate activity-based Plasma stability t½
row,SMILES,half-life
1,"CCCCCCCCCCCCCC(=O)NCCOCCOCC(=O)NCCOCCOCC(=O)NCCOCCOCC(=O)NCCOCCOCC(=O)N[C@@H](CCC(N)=O)C(=O)N[C@@H](CCCNC(=N)N)C(=O)N1CCC[C@H]1C(=O)N[C@@H](CCCNC(=N)N)C(=O)N[C@@H](CC(C)C)C(=O)N[C@H]1CSSC[C@@H](C(=O)N[C@H](Cc2ccccc2)C(=O)O)NC(=O)[C@H](CCCC)NC(=O)[C@@H]2CCCN2C(=O)CNC(=O)[C@H](CCCCN)NC(=O)[C@H](Cc2c[nH]cn2)NC1=O [Example 60, Myristoyl-O2Oc-O2Oc-O2Oc-O2Oc-Q-R-P-R-L-C-H-K-G-P-Nle-C-f-OH] ({Myristoyl-AEEA-AEEA-AEEA-AEEA}-QRPRLCHKGP[Nle]C[dF]-OH; disulfide 6-12)",> 1000 min
2,"CCCC[C@@H]1NC(=O)[C@@H]2CCCN2C(=O)CNC(=O)C2(CCNCC2)NC(=O)[C@H](Cc2c[nH]cn2)NC(=O)[C@@H](NC(=O)[C@H](CC(C)C)NC(=O)[C@H](CCCNC(=N)N)NC(=O)[C@@H]2CCCN2C(=O)[C@H](CCCNC(=N)N)NC(=O)[C@@H]2CCC(=O)N2)CSSC[C@@H](C(=O)N[C@@H](Cc2ccccc2)C(=O)O)NC1=O [Example 21, pE-R-P-R-L-C-H-(4-NH-Isn)-G-P-Nle-C-F-OH] ([pGlu]RPRLCH[Api]GP[Nle]CF-OH; disulfide 6-12)",640 min
3,"CCCC[C@@H]1NC(=O)[C@@H]2CCCN2C(=O)CNC(=O)[C@H](Cc2ccccc2)NC(=O)[C@H](Cc2c[nH]cn2)NC(=O)[C@@H](NC(=O)[C@H](CC(C)C)NC(=O)[C@H](CCCNC(=N)N)NC(=O)[C@@H]2CCCN2C(=O)[C@H](CCCNC(=N)N)NC(=O)[C@@H]2CCC(=O)N2)CCCCNC(=O)CC[C@@H](C(=O)NCCc2ccccc2)NC1=O [Example 2, pE-R-P-R-L-K-H-F-G-P-Nle-E-Phenethylamine] ([pGlu]RPRLKHFGP[Nle]E-NHPhenethyl; lactam 6-12)",27.1 min
4,"CCCC[C@@H]1NC(=O)[C@@H]2CCCN2C(=O)CNC(=O)[C@H](CCCCN)NC(=O)[C@H](Cc2c[nH]cn2)NC(=O)[C@@H](NC(=O)[C@H](CC(C)C)NC(=O)[C@H](Cc2ccccc2)NC(=O)[C@@H]2CCCN2C(=O)[C@H](CCCNC(=N)N)NC(=O)[C@@H]2CCC(=O)N2)CSSC[C@@H](C(=O)N[C@@H](Cc2ccccc2)C(=O)O)NC1=O [Example 36, pE-R-P-F-L-C-H-K-G-P-Nle-C-F-OH] ([pGlu]RPFLCHKGP[Nle]CF-OH; disulfide 6-12)",> 1000 min
5,"CCCCCCCCCCCCCC(=O)NCCCC[C@@H]1NC(=O)[C@H](Cc2c[nH]cn2)NC(=O)[C@@H](NC(=O)[C@H](CC(C)C)NC(=O)[C@H](CCCNC(=N)N)NC(=O)[C@@H]2CCCN2C(=O)[C@H](CCCNC(=N)N)NC(=O)[C@@H]2CCC(=O)N2)CSSC[C@@H](C(=O)N[C@@H](Cc2ccccc2)C(=O)O)NC(=O)[C@H](CCCC)NC(=O)[C@@H]2CCCN2C(=O)CNC1=O [Example 61, pE-R-P-R-L-C-H-K(Myristoyl)-G-P-Nle-C-F-OH] ([pGlu]RPRLCHK(Myristoyl)GP[Nle]CF-OH; disulfide 6-12)",260 min
6,"CCCCCCCCCCCC(=O)NCCCC[C@@H]1NC(=O)[C@@H](NC(=O)[C@H](CC(C)C)NC(=O)[C@H](CCCNC(=N)N)NC(=O)[C@@H]2CCCN2C(=O)[C@H](CCCNC(=N)N)NC(=O)[C@@H]2CCC(=O)N2)CSSC[C@@H](C(=O)N[C@@H](Cc2ccccc2)C(=O)O)NC(=O)[C@H](CCCC)NC(=O)[C@@H]2CCCN2C(=O)CNC(=O)[C@H](CCCCN)NC1=O [Example 27, pE-R-P-R-L-C-K(Lauroyl)-K-G-P-Nle-C-F-OH] ([pGlu]RPRLCK(Lauroyl)KGP[Nle]CF-OH; disulfide 6-12)",> 1000 min
7,"CCCC[C@@H]1NC(=O)[C@@H]2CCCN2C(=O)CNC(=O)[C@H](Cc2ccccc2)NC(=O)[C@H](Cc2c[nH]cn2)NC(=O)[C@@H](NC(=O)[C@H](CC(C)C)NC(=O)[C@H](CCCNC(=N)N)NC(=O)[C@@H]2CCCN2C(=O)[C@H](CCCNC(=N)N)NC(=O)[C@@H]2CCC(=O)N2)CCCNC(=O)C[C@@H](C(=O)NCCc2ccccc2)NC1=O [Example 3, pE-R-P-R-L-Orn-H-F-G-P-Nle-D-Phenethylamine] ([pGlu]RPRL[Orn]HFGP[Nle]D-NHPhenethyl; lactam 6-12)",98 min
8,"CCCC[C@@H]1NC(=O)[C@@H]2CCCN2C(=O)CNC(=O)[C@H](CCCCN)NC(=O)[C@H](Cc2c[nH]cn2)NC(=O)[C@@H](NC(=O)[C@H](Cc2ccc(-c3ccccc3)cc2)NC(=O)[C@H](CCCNC(=N)N)NC(=O)[C@@H]2CCCN2C(=O)[C@H](CCCNC(=N)N)NC(=O)[C@@H]2CCC(=O)N2)CSSC[C@@H](C(=O)N[C@@H](Cc2ccccc2)C(=O)O)NC1=O [Example 41, pE-R-P-R-(4-PhF)-C-H-K-G-P-Nle-C-F-OH] ([pGlu]RPR[Bip]CHKGP[Nle]CF-OH; disulfide 6-12)",627 min
9,"CCCC[C@@H]1NC(=O)[C@@H]2CCCN2C(=O)CNC(=O)[C@H](Cc2ccccc2)NC(=O)[C@H](Cc2c[nH]cn2)NC(=O)[C@@H](NC(=O)[C@H](CC(C)C)NC(=O)[C@H](CCCNC(=N)N)NC(=O)[C@@H]2CCCN2C(=O)[C@H](CCCNC(=N)N)NC(=O)[C@@H]2CCC(=O)N2)CSSC[C@@H](C(=O)NCCc2ccccc2)NC1=O [Example 19, pE-R-P-R-L-C-H-F-G-P-Nle-C-Phenethylamine] ([pGlu]RPRLCHFGP[Nle]C-NHPhenethyl; disulfide 6-12)",28.4 min

# Further lines, results first:
row,half-life,SMILES
1,> 1000 min,"CCCC[C@@H]1NC(=O)[C@@H]2CCCN2C(=O)CNC(=O)[C@H](CCCCN)NC(=O)[C@H](Cc2c[nH]cn2)NC(=O)[C@@H](NC(=O)[C@H](CC(C)C)NC(=O)[C@H](CCCNC(=N)N)NC(=O)[C@@H]2CCCN2C(=O)[C@H](CCCNC(=N)N)NC(=O)[C@@H]2CCC(=O)N2)CSSCC[C@H](C(=O)N[C@@H](Cc2ccccc2)C(=O)O)NC1=O [Example 54, pE-R-P-R-L-C-H-K-G-P-Nle-(D-hC)-F-OH] ([pGlu]RPRLCHKGP[Nle][d(hCys)]F-OH; disulfide 6-12)"
2,> 1000 min,"CCCC[C@@H]1NC(=O)[C@@H]2CCCN2C(=O)CNC(=O)[C@H](CCCCN)NC(=O)C(C)(C)NC(=O)[C@@H](NC(=O)[C@H](CC(C)C)NC(=O)[C@H](CCCNC(=N)N)NC(=O)[C@@H]2CCCN2C(=O)[C@H](CCCNC(=N)N)NC(=O)C2CCNCC2)CSSC[C@@H](C(=O)N[C@H](Cc2ccccc2)C(=O)O)NC1=O [Example 11, H-Isn-R-P-R-L-C-Aib-K-G-P-Nle-C-f-OH] (H-[Inp]RPRLC[Aib]KGP[Nle]C[dF]-OH; disulfide 6-12)"
3,546 min,"CCCC[C@@H]1NC(=O)[C@@H]2CCCN2C(=O)CNC(=O)[C@H](CCCCN)NC(=O)[C@H](Cc2c[nH]cn2)NC(=O)[C@@H](NC(=O)[C@H](CC(C)C)NC(=O)[C@H](CCCNC(=N)N)NC(=O)[C@@H]2CCCN2C(=O)[C@H](CCCNC(=N)N)NC(=O)[C@@H]2CCC(=O)N2)CSSC[C@@H](C(=O)N[C@@H](Cc2c[nH]cn2)C(=O)O)NC1=O [Example 48, pE-R-P-R-L-C-H-K-G-P-Nle-C-H-OH] ([pGlu]RPRLCHKGP[Nle]CH-OH; disulfide 6-12)"
4,> 1000 min,"CCCC[C@@H]1NC(=O)[C@@H]2CCCN2C(=O)CNC(=O)[C@H](CCCCN)NC(=O)[C@H](Cc2c[nH]cn2)NC(=O)[C@@H](NC(=O)[C@H](CC(C)C)NC(=O)[C@H](CCC(=O)O)NC(=O)[C@@H]2CCCN2C(=O)[C@H](CCCNC(=N)N)NC(=O)[C@@H]2CCC(=O)N2)CSSC[C@@H](C(=O)N[C@@H](Cc2ccccc2)C(=O)O)NC1=O [Example 40, pE-R-P-E-L-C-H-K-G-P-Nle-C-F-OH] ([pGlu]RPELCHKGP[Nle]CF-OH; disulfide 6-12)"
5,502 min,"CCCC[C@@H]1NC(=O)C2CCCCN2C(=O)CNC(=O)[C@H](CCCCN)NC(=O)[C@H](Cc2c[nH]cn2)NC(=O)[C@@H](NC(=O)[C@H](CC(C)C)NC(=O)[C@H](CCCNC(=N)N)NC(=O)[C@@H]2CCCN2C(=O)[C@H](CCCNC(=N)N)NC(=O)[C@@H]2CCC(=O)N2)CSSC[C@@H](C(=O)N[C@@H](Cc2ccccc2)C(=O)O)NC1=O (stereo partly drawn) [Example 46, pE-R-P-R-L-C-H-K-G-(Pipecolic acid)-Nle-C-F-OH] ([pGlu]RPRLCHKG[ξPip][Nle]CF-OH; disulfide 6-12)"
6,778 min,"CCCC[C@@H]1NC(=O)[C@@H]2CCCN2C(=O)CNC(=O)[C@H](CCCCN)NC(=O)[C@H](Cc2c[nH]cn2)NC(=O)[C@@H](NC(=O)[C@H](CC(C)C)NC(=O)[C@H](CCCNC(=N)N)NC(=O)[C@@H]2CCCN2C(=O)[C@H](CCCNC(=N)N)NC(=O)[C@@H]2CCC(=O)N2)CCSSCC[C@@H](C(=O)N[C@@H](Cc2ccccc2)C(=O)O)NC1=O [Example 52, pE-R-P-R-L-hC-H-K-G-P-Nle-hC-F-OH] ([pGlu]RPRL[hCys]HKGP[Nle][hCys]F-OH; disulfide 6-12)"
7,> 1000 min,"CCCC[C@@H]1NC(=O)[C@@H]2CCCN2C(=O)CNC(=O)[C@H](CCCCN)NC(=O)C(C)(C)NC(=O)[C@@H](NC(=O)[C@H](CC(C)C)NC(=O)[C@H](CCCNC(=N)N)NC(=O)[C@@H]2CCCN2C(=O)[C@H](CCCNC(=N)N)NC(=O)[C@@H]2CCC(=O)N2)CSSC[C@@H](C(=O)N[C@H](Cc2ccccc2)C(=O)O)NC1=O [Example 10, pE-R-P-R-L-C-Aib-K-G-P-Nle-C-f-OH] ([pGlu]RPRLC[Aib]KGP[Nle]C[dF]-OH; disulfide 6-12)"
8,> 1000 min,"CCCC[C@@H]1NC(=O)[C@@H]2CCCN2C(=O)CNC(=O)[C@H](CCCCN)NC(=O)C(C)(C)NC(=O)[C@@H](NC(=O)[C@H](CC(C)C)NC(=O)[C@H](CCCNC(=N)N)NC(=O)[C@@H]2CCCN2C(=O)[C@H](CCCNC(=N)N)NC(=O)[C@@H]2CCC(=O)N2)CSSC[C@@H](C(=O)N[C@@H](Cc2ccccc2)C(=O)O)NC1=O [Example 9, pE-R-P-R-L-C-Aib-K-G-P-Nle-C-F-OH] ([pGlu]RPRLC[Aib]KGP[Nle]CF-OH; disulfide 6-12)"
